Like-named read-outs stand apart in the source and are kept apart here.
Columns and labels:
[1] = tested on: MDA-MB-231 monocellular spheroids; experiment: Drug efficacy in MDA-MB-231 monocellular spheroids; format: cell-based, human; settings: drug at IC50 of MDA-MB-231 monolayer cells, 2 days
Procedure: (§1) To form 3D multicellular tumor spheroids, cells was trypsinized and suspended in the growth media. Stromal cells and breast cancer cells were plated with a density of 5 × 10^3 cells /25 μL into 96‐well plate precoated with poly‐HEMA, respectively, resulting in 1 × 10^4 cells exist per each well. After seeding, the plate was centrifuged for 2 min at 1000 rpm to collect the cells in the center of the well. Fifty microliters of 10% Matrigel® Basement Membrane Matrix (Corning, NY, USA) solution diluted in media was gently added into the plate on ice to prevent matrigel from gelation. Monocellular spheroids were generated by a single culture of stromal cells or breast cancer cells. Cells were seeded with a density of 1 × 10^4 cells per well with 50 μL of 10% matrigel on a poly‐HEMA‐coated plate. Then, the plate with cells and matrigel was centrifuged at 1000 rpm for 2 min, and incubated for 48 h at 37°C with 5% CO2.

[2] = tested on: hASC monocellular spheroids; experiment: Drug efficacy in hASC monocellular spheroids; format: cell-based, human; settings: drug at IC50 of MDA-MB-231 monolayer cells, 2 days
Procedure: as §1

[3] = tested on: Multicellular spheroids with hASC and MDA-MB-231; experiment: Permeability value (PV) in the 3D tumor model; settings: PV = EffA:M - 1/2(EffASC + EffMDA), Equation (4)
Procedure: Therefore, we defined the permeability value (PV) of each drug as the difference in efficacy in multicellular and monocellular spheroids, as determined by Equation (4).
After treating the drug with spheroids for 2 days, the efficacy of the drug was evaluated by CellTiter‐Glo® 3D Cell Viability Assay (Promega). […] (4) PV=EffA:M−1/2EffASC+EffMDA.

MDA-MB-231 cells = experiment: IC50 in MDA-MB-231 monolayer cells; format: cell-based, human
[4] = tested on: hASC-co-cultured spheroids (A:M); experiment: Drug penetration (intrinsic fluorescence) in hASC-co-cultured tumor spheroids; format: cell-based, human; settings: for Amount of drug inside the spheroids compared to other spheroids: 10 μM, 48 h, fluorescence microscopy, vs hBMSC- or hDF-co-cultured spheroids; for Amount of drug penetrating the spheroids, TIMP-1 silencing vs control siRNA: hASCs transfected with siTIMP-1, 48 h treatment
Procedure: (§2) We next tested whether ECM deposition on the surface of spheroids would affect the penetration of anticancer drugs and their efficacy. Three types of 3D multicellular tumor spheroids were formed and treated with 10 μM doxorubicin, epirubicin, or topotecan, which are chemotherapeutic agents for various tumors, including breast cancer, for an additional 48 h.
as §1
(§3) Spheroids were transferred to an opaque‐walled multiwall plate and analyzed by ATP‐based cell viability assays using Real Time‐Glo™ MT Cell Viability Assay (Promega, Madison, WI, USA) according to the manufacturer's protocol. […] Necrotic cells of spheroids were analyzed in Real Time‐Glo™ Annexin V Necrosis Assay (Promega) following the manufacturer's instructions. Luminescence was measured using a Glomax discovery multi Microplate Reader (Glomax discovery, Promega) with an integration time of 0.25–1.0 s per well.

[5] = tested on: hDF-co-cultured spheroids (F:M); experiment: Drug penetration (intrinsic fluorescence) in hDF-co-cultured tumor spheroids; format: cell-based, human; settings: 10 μM, 48 h, fluorescence microscopy
Procedure: as §2, §1, §3

[6] = tested on: 3D multicellular tumor spheroids; experiment: Necrosis in tumor spheroids, Real Time-Glo Annexin V Necrosis Assay; format: cell-based, human; settings: A:M spheroids with control siRNA or siTIMP-1 hASCs
[7] = tested on: hBMSC-co-cultured spheroids (B:M); experiment: Drug penetration (intrinsic fluorescence) in hBMSC-co-cultured tumor spheroids; format: cell-based, human; settings: 10 μM, 48 h, fluorescence microscopy
Procedure: as §2, §1, §3

[8] = tested on: hASC-co-cultured spheroids (A:M); experiment: Drug efficacy in multicellular tumor spheroids, Real Time-Glo MT Cell Viability Assay; format: cell-based, human; settings: hASCs transfected with siTIMP-1, 48 h treatment
Procedure: as §3

[9] = tested on: Multicellular spheroids with hASC and MDA-MB-231; experiment: Drug efficacy in hASC and MDA-MB-231 multicellular (A:M) spheroids, CellTiter-Glo 3D; format: cell-based, human; settings: drug at IC50 of MDA-MB-231 monolayer cells, 2 days
Procedure: as §1

[10] = Homo sapiens, MDA-MB-231 monolayer cells, read-out: MDA-MB-231 IC50

SMILES	Experiment's PV #1 [3]	Experiment's PV #2 [3]	Experiment's PV #3 [3]	IC50 (MDA-MB-231 cells; [10])	Amount of drug inside the spheroids compared to other spheroids [4]	Amount of drug penetrating the spheroids, TIMP-1 silencing vs control siRNA [4]	Distribution of drug inside the spheroids [5]	Distribution of drug inside the spheroids [7]	IC50 (MDA-MB-231 cells; MDA-MB-231 monolayer cells, read-out: MDA-MB-231 IC50)	MDA spheroid Efficacy (EffMDA, %) [1]	hASC spheroid Efficacy (EffASC, %) [2]	IC50 (MDA-MB-231 cells; Homo sapiens, MDA-MB-231, read-out: MDA-MB-231 IC50)	Necrotic cells after drug treatment [6]	Drug efficacy, TIMP-1-silenced hASCs vs control [8]	A:M spheroid Efficacy (EffA:M, %) [9]
COc1ccc(N(C)c2nc(C)nc3ccccc23)cc1 [Verubulin]	0.039	0.029	0.085	–	–	–	–	–	–	5.173%	24.939%	0.01 µM	–	–	–
CC[C@@]1(O)C(=O)OCc2c1cc1n(c2=O)Cc2cc3c(CN(C)C)c(O)ccc3nc2-1 [topotecan]	–	–	–	–	significant reduction	significantly increased	distributed throughout	distributed throughout	–	–	–	–	Few necrotic cells	significantly increased	–
CO[C@@]12[C@H](COC(N)=O)C3=C(C(=O)C(C)=C(N)C3=O)N1C[C@@H]1N[C@@H]12 [Mitomycin-c]	-0.071	-0.097	-0.045	17.5 µM	–	–	–	–	–	53.401%	64.309%	–	–	–	–
COc1cc([C@@H]2c3cc4c(cc3[C@@H](O[C@@H]3O[C@@H]5CO[C@@H](C)O[C@H]5[C@H](O)[C@H]3O)[C@H]3COC(=O)[C@H]23)OCO4)cc(OC)c1O [Etoposide]	0.029	0.043	0.016	32.6 µM	–	–	–	–	–	64.897%	73.263%	–	–	–	–
CCCCCOC(=O)Nc1nc(=O)n([C@@H]2O[C@H](C)[C@@H](O)[C@H]2O)cc1F [Capecitabine]	0.000	0.001	0.000	95 µM	–	–	–	–	–	99.873%	99.895%	–	–	–	–
Cn1ncnc1[C@H]1c2n[nH]c(=O)c3cc(F)cc(c23)N[C@@H]1c1ccc(F)cc1 [Talazoparib]	0.051	0.057	0.046	87.4 µM	–	–	–	–	–	75.508%	99.742%	–	–	–	–
CN(C)c1nc(N(C)C)nc(N(C)C)n1 [Altretamine]	0.025	0.062	-0.012	64.5 µM	–	–	–	–	–	36.883%	41.038%	–	–	–	–
CC(=O)O[C@H]1C(=O)[C@@]2(C)[C@H]([C@H](OC(=O)c3ccccc3)[C@]3(O)C[C@H](OC(=O)[C@H](O)[C@@H](NC(=O)c4ccccc4)c4ccccc4)C(C)=C1C3(C)C)[C@]1(OC(C)=O)CO[C@@H]1C[C@@H]2O [Paclitaxel]	-0.047	-0.071	-0.023	2.38 µM	–	–	–	–	–	72.690%	97.404%	–	–	–	–
C/C(=C\c1csc(C)n1)[C@@H]1C[C@@H]2O[C@]2(C)CCC[C@H](C)[C@H](O)[C@@H](C)C(=O)C(C)(C)[C@@H](O)CC(=O)O1 [Patupilone, Patupilone (epothilone-b)]	-0.039	-0.067	-0.010	33.4 µM	–	–	–	–	–	23.781%	34.560%	–	–	–	–
COc1cccc2c1C(=O)c1c(O)c3c(c(O)c1C2=O)C[C@@](O)(C(=O)CO)C[C@@H]3O[C@H]1C[C@H](N)[C@@H](O)[C@H](C)O1 [Epirubicin]	-0.096	-0.017	-0.056	1.57 µM	significant reduction	significantly increased	distributed throughout	distributed throughout	–	23.696%	45.548%	–	Few necrotic cells	significantly increased	–
CNCc1ccc(-c2[nH]c3cc(F)cc4c3c2CCNC4=O)cc1 [Rucaparib]	–	–	–	72.3 µM	–	–	–	–	–	92.185%	99.818%	–	–	–	–
CC[C@@]1(O)C(=O)OCc2c1cc1n(c2=O)Cc2cc3c([N+](=O)[O-])cccc3nc2-1 [Rubitecan]	–	–	–	0.82 µM	–	–	–	–	–	25.373%	17.266%	–	–	–	–
CCc1c2c(nc3ccc(O)cc13)-c1cc3c(c(=O)n1C2)COC(=O)[C@]3(O)CC [SN38, 7-ethyl-10-hydroxycamptothecin]	0.031	0.035	0.027	1.87 µM	–	–	–	–	–	58.491%	60.449%	–	–	–	–

Second part, led by results:

Experiment's PV #1 [3]	Experiment's PV #2 [3]	Experiment's PV #3 [3]	IC50 (MDA-MB-231 cells; [10])	Amount of drug inside the spheroids compared to other spheroids [4]	Amount of drug penetrating the spheroids, TIMP-1 silencing vs control siRNA [4]	Distribution of drug inside the spheroids [5]	Distribution of drug inside the spheroids [7]	IC50 (MDA-MB-231 cells; MDA-MB-231 monolayer cells, read-out: MDA-MB-231 IC50)	SMILES	MDA spheroid Efficacy (EffMDA, %) [1]	hASC spheroid Efficacy (EffASC, %) [2]	IC50 (MDA-MB-231 cells; Homo sapiens, MDA-MB-231, read-out: MDA-MB-231 IC50)	Necrotic cells after drug treatment [6]	Drug efficacy, TIMP-1-silenced hASCs vs control [8]	A:M spheroid Efficacy (EffA:M, %) [9]
-0.060	-0.020	-0.100	1.83 µM	–	–	–	–	–	CC[C@]1(O)C[C@@H]2CN(CCc3c([nH]c4ccccc34)[C@@](C(=O)OC)(c3cc4c(cc3OC)N(C)[C@H]3[C@@](O)(C(=O)OC)[C@H](OC(C)=O)[C@]5(CC)C=CCN6CC[C@]43[C@@H]65)C2)C1 [Vinblastine]	9.274%	25.299%	–	–	–	–
-0.114	-0.075	-0.095	–	–	–	–	–	72.1 µM	CC1(C)[C@@H](O[C@H]2O[C@H](C(=O)O)[C@@H](O)[C@H](O)[C@H]2O[C@@H]2O[C@H](C(=O)O)[C@@H](O)[C@H](O)[C@H]2O)CC[C@]2(C)[C@H]3C(=O)C=C4[C@@H]5C[C@@](C)(C(=O)O)CC[C@]5(C)CC[C@@]4(C)[C@]3(C)CC[C@@H]12 [Ammonium-glycyrrhizinate]	40.204%	33.753%	–	–	–	27.510%
–	–	–	15.4 µM	–	–	–	–	–	CC#C[C@]1(O)CC[C@H]2[C@@H]3CCC4=CC(=O)CCC4=C3[C@@H](c3ccc(N(C)C)cc3)C[C@@]21C [Mifepristone]	46.672%	91.524%	–	–	–	–
–	–	–	–	significant reduction	significantly increased	distributed throughout	distributed throughout	–	COc1cccc2c1C(=O)c1c(O)c3c(c(O)c1C2=O)C[C@@](O)(C(=O)CO)C[C@@H]3O[C@H]1C[C@H](N)[C@H](O)[C@H](C)O1 [Doxorubicin, doxorubicin]	–	–	–	Few necrotic cells	significantly increased	–
–	–	–	2.16 µM	–	–	–	–	–	COC(=O)[C@]12CCC(C)(C)C[C@H]1[C@H]1C(=O)C=C3[C@@]4(C)C=C(C#N)C(=O)C(C)(C)[C@@H]4CC[C@@]3(C)[C@]1(C)CC2 [Bardoxolone-methyl]	-35.997%	38.156%	–	–	–	–

Source: publication PMC9115709, “TIMP‐1‐expressing breast tumor spheroids for the evaluation of drug penetration and efficacy” (Bioengineering & Translational Medicine, 2021)
